How the values were obtained:
[1] = Photochemical stability on irradiation in PBS, HPLC analysis; format: physicochemical; conditions: 0.1 mM PBS solutions irradiated separately for 12 minutes, 300 and 350 nm fluorescent lamps
Experimental: It is important to note that peptide 4 and NQMP-TEG (1c) are photochemically stable under these conditions. […] Obviously, NQMP 1c still forms oNQM 2c but in the absence of thiols the latter rapidly undergoes hydration back to starting materials.
0.1 mM PBS solutions of NQMP-TEG (2c) and peptide 4 were irradiated separately for 12 minutes using both 300 and 350 nm fluorescent lamps.

[2] = molecular target: T1, Papain from papaya latex (Carica papaya, UniProt P00784); test: Photochemical restoration (re-activation) of NQMP-inhibited papain activity; format: biochemical; conditions: for Papain Activity: photolysate with inhibited papain, NQMP-TEG, cysteine plus 2-(2-(vinyloxy)ethoxy)ethanol equal to initial NQMP-TEG
T1 construct: from tissue; host or cells: papaya latex
T1 sequence (P00784 134-345): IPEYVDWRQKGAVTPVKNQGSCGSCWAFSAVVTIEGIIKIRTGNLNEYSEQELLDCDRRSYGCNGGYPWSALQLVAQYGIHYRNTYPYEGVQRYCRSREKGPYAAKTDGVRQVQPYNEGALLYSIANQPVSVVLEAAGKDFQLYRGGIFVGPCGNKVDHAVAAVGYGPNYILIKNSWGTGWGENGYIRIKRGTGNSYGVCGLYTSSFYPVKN
Experimental: (§1) Papain was activated by incubation the enzyme with 100-40 fold excess of free cysteine for 45 minutes in PBS solution. The concentration of the papain in the stock solution was determined by its […] at 280 nm (s=57600 M^−1 cm^−1) (Pace et. al., Protein Sci. 1995, 4:2411-2423). The activity of the protease was measured using N-α-benzoyl-L-arginine-p-nitroanilide (L-BAPNA). […] The formation of the latter can be followed by the rise of characteristic absorbance at 410 nm (ε=9800). Water-soluble NQMP-TEG (FIG. 13) was employed for inhibition experiments.
A sample of deactivated papain was prepared as described above. The protein was separated from low molecular weight compounds using gel filtration (Sephadex PD-10 column). To check for the completeness of inhibition an excess of cysteine was added to a PBS solution of the inhibited papain and incubated for 45 minutes. […] This solution was then re-irradiated with 350 nm fluorescent lamps for 15 minutes.
Alternatively, re-activation of papain was achieved without isolation of inhibited enzyme. Ethyl vinyl ether derivative, 2-(2-(vinyloxy)ethoxy)ethanol, was added to a photolysate containing inhibited papain, NQMP-TEG, and cysteine in PBS solution. The amount of vinyl ether added was equal to the initial amount of NQMP-TEG.

[3] = Cysteine specificity of NQMP photo-click reaction, peptides lacking free cysteine; conditions: irradiation of peptides 6 and 7 with 4 to 12 equivalents of NQMP-TEG, HPLC analysis
Experimental: To test the cysteine specificity of NQMP photo-click reaction, two analogs of peptide 4 containing the same amino acid sequence but lacking free cysteine were prepared. In nonapeptide 6 cysteine residue was replaced with methionine, while the thiol group in 4 was converted into disulfide bond by oxidative dimerization to form oligopeptide 7. […] These experiments show the high specificity of addition of photochemically generated oNQM to cysteine thiol group.
0.1 mM PBS solutions of peptides 4, 6, and 7 were irradiated with 300 or 350 nm fluorescent lamps in the presence of variable amounts of NQMP-TEG (2c, 0.1-0.4 mM). Composition of the photolysates was analyzed using HPLC (FIG. 17). Peptide 4-NQMP-TEG conjugate (5) was isolated using semi-prep C-18 HPLC column and characterized by ESI-HRMS (FIG. 18). The concentration of labeled peptide 5 was determined by UV spectroscopy using characteristic 330 nm band of NQMP chromophore. This solution was then used in calibration of HPLC instruments.

[4] = Aqueous solubility of NQMP derivatives; conditions: wholly aqueous solutions
[5] = molecular target: T1, Papain from papaya latex; test: Photochemical inhibition of papain activity by NQMP-TEG (L-BAPNA hydrolysis rate); format: biochemical; conditions: for Relative activity: PBS
Experimental: as §1
A PBS solution containing 1.7 μM of papain, 80 μM of cysteine and variable amounts of NQMP-TEG was irradiated for 2 minutes with 350 nm fluorescent lamps. A stock solution of BAPNA was then added to a photolysate to achieve 800 μM concentration of the substrate and rate of hydrolysis was measured (Table 5, FIG. 14).
A PBS solution containing 0.91 μM of papain, 44 μM of cysteine and 109 μM of NQMP-TEG was irradiated for 2, 3 or 4 minutes with 350 nm fluorescent lamps. A stock solution of BAPNA was then added to a photolysate to achieve 200 μM concentration of the substrate and rate of hydrolysis was measured (Table 6, FIG. 15).

For “Ac-Cys-Lys-Tyr-Trp-Gly-Arg-Asp-Ser-NH2 (Ac-CKYWGRDS-NH2) [compound 4]”, the “Photochemical stability (decomposition or losses by HPLC)” value [1] was “No decomposition or losses of materials were detected”.

In the case of “8-TEG-3-(hydroxymethyl)naphthalen-2-ol [NQMP-TEG]”, the “Papain Activity” value ([2]; 350 nm irradiation 0 minutes) is reported as 0%, the “Papain Activity” value ([2]; 350 nm irradiation 3 minutes) is reported as 28% and the “Papain Activity” value ([2]; 350 nm irradiation 4 minutes) is reported as 40%. For the same molecule, the “Papain Activity” value ([2]; 350 nm irradiation 5 minutes) was 47%, the “Papain Activity” value ([2]; 350 nm irradiation 7 minutes) was 58% and the “Papain Activity” value ([2]; 350 nm irradiation 8 minutes) was 76%. For the same molecule, the “Labeling of peptides lacking free cysteine (selectivity)” value [3] was “produced no labeled products”, the Aqueous solubility [4] was “freely soluble in wholly aqueous solutions up to millimolar concentrations” and the Relative activity ([5]; 100 μM NQMP-TEG, 1.7 μM papain, 80 μM cysteine, 2 minutes irradiation at 350 nm, 800 μM BAPNA) was 65%. For the same molecule, the Relative activity ([5]; 109 μM NQMP-TEG, 0.91 μM papain, 44 μM cysteine, 2 minutes irradiation at 350 nm, 200 μM BAPNA) was 52%, the Relative activity ([5]; 109 μM NQMP-TEG, 0.91 μM papain, 44 μM cysteine, 3 minutes irradiation at 350 nm, 200 μM BAPNA) was 27% and the Relative activity ([5]; 109 μM NQMP-TEG, 0.91 μM papain, 44 μM cysteine, 4 minutes irradiation at 350 nm, 200 μM BAPNA) was 0%. It also gave a Relative activity ([5]; 109 μM NQMP-TEG, 0.91 μM papain, 44 μM cysteine, irradiation time 0 minutes, 200 μM BAPNA) of 100%, a Relative activity ([5]; 150 μM NQMP-TEG, 1.7 μM papain, 80 μM cysteine, 2 minutes irradiation at 350 nm, 800 μM BAPNA) of 48% and a Relative activity ([5]; 200 μM NQMP-TEG, 1.7 μM papain, 80 μM cysteine, 2 minutes irradiation at 350 nm, 800 μM BAPNA) of 43%. For the same molecule, the Relative activity ([5]; 250 μM NQMP-TEG, 1.7 μM papain, 80 μM cysteine, 2 minutes irradiation at 350 nm, 800 μM BAPNA) was 27%, the Relative activity ([5]; 300 μM NQMP-TEG, 1.7 μM papain, 80 μM cysteine, 2 minutes irradiation at 350 nm, 800 μM BAPNA) was 17% and the Relative activity ([5]; 400 μM NQMP-TEG, 1.7 μM papain, 80 μM cysteine, 2 minutes irradiation at 350 nm, 800 μM BAPNA) was 0%. The “Concentration required to completely inhibit the activity of Papain” value ([5]; 2 minutes of irradiation at 350 nm, 1.7 μM papain, 80 μM cysteine) was “about 350 μM” and the “Photochemical stability (decomposition or losses by HPLC)” value [1] was “No decomposition or losses of materials were detected”.

In the case of `OCc1cc2cccc(O)c2cc1O` [1b, 6-(hydroxymethyl)naphthalene-1,7-diol], the Aqueous solubility [4] is reported as “rather low aqueous solubility”.

For `OCc1cc2ccccc2cc1O` [1a, 3-hydroxy-2-naphthalenemethanol], the Aqueous solubility [4] was “rather low aqueous solubility”.

B1: inhibited papain: papain deactivated by irradiation with NQMP-TEG; a single NQMP-TEG unit added as thioether (conjugate, UniProt P00784 134-345, looked up)
Papain: IPEYVDWRQKGAVTPVKNQGSCGSCWAFSAVVTIEGIIKIRTGNLNEYSEQELLDCDRRSYGCNGGYPWSALQLVAQYGIHYRNTYPYEGVQRYCRSREKGPYAAKTDGVRQVQPYNEGALLYSIANQPVSVVLEAAGKDFQLYRGGIFVGPCGNKVDHAVAAVGYGPNYILIKNSWGTGWGENGYIRIKRGTGNSYGVCGLYTSSFYPVKN
modifications: NQMP-TEG thioether adduct, inactivated
For B1, the “Protease activity (L-BAPNA cleavage) after incubation with excess cysteine” value ([2]; gel-filtered inhibited papain in PBS, excess of cysteine, 45 minutes, no re-irradiation) was “does not cleave L-BAPNA” and the “Restoration of papain activity relative to wild type papain” value ([2]; gel-filtered inhibited papain, no NQMP reagent, re-irradiated with 350 nm lamps for 15 minutes) was 85-92%.
